According to patent US9783536B2, “Nitrogen-containing heterocyclic compound or salt thereof” (FUJIFILM Corporation, priority 2013, dated 2017):
pIC50: −log10 of the molar value. Where a name gives a salt, the structure may show the parent alone.

Assays:
Format in all cases: biochemical
[1] = target: T1, GST fusion human ERK2 protein (Homo sapiens, UniProt P28482); assay: ERK2 enzyme assay (1); conditions: read-out: ERK2 enzyme inhibitory activity (1)
T1 construct: purchased Carna Biosciences, Inc; host or cells: E. coli expression system
T1 sequence (P28482 whole entry, the tested form may be a part): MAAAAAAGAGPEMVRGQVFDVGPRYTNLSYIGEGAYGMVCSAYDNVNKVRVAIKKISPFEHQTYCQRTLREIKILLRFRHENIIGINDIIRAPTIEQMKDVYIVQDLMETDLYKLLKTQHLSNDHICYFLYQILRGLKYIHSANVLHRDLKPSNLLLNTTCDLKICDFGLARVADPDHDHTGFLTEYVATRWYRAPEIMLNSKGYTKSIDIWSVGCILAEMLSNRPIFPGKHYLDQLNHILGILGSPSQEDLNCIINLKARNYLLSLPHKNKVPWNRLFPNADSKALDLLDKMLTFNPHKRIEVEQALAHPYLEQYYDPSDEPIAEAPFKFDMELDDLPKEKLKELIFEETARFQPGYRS
Method: In an ERK2 enzyme assay, GLUTATHIONE S-TRANSFERASE (GST) FUSION HUMAN ERK2 PROTEIN (manufactured by Carna Biosciences, Inc.), which was produced by using an E. coli expression system, was used.
12 μL of a reaction liquid (2.5 nmol/L ERK2, 100 mmol/L Hepes, 10 mmol/L MgCl2, 1.5 mmol/L DTT, 0.003% Brij35, pH 7.5) including ERK2 protein and a test compound having a predetermined concentration was allowed to stand at room temperature for 15 minutes. Then, 3 μL of a mixture liquid of FL-PEPTIDE8 (5-FAM-IPTSPITTTYFFFKKK-COOH) (manufactured by Caliper Life Sciences), which is substrate peptide, and ATP (manufactured by Sigma-Aldrich Co. LLC.) was added thereto such that the final concentrations thereof became 4.25 μmol/L and 43.1 μmol/L, respectively, and an enzyme reaction was performed by allowing to stand at 25° C. for 120 minutes.
After the reaction, the enzyme reaction was stopped by adding 30 μL of a reaction stopper liquid (100 mmol/L HEPES, 11.2 mmol/L EDTA, 5.6% Brij35, pH 7.5) including a 0.5% COATING REAGENT 8 (trade name, manufactured by Perkin Elmer Inc.) thereto. Then, phosphorylated peptide and non-phosphorylated peptide were separated using LABCHIP EZ READER (trade name, manufactured by Caliper Life Sciences), and the porportion of the phosphorylated peptide was quantified.
The inhibitory activities of the compounds were evaluated using IC50 (50% inhibitory concentration). The IC50 was calculated using XLFIT (trade name, manufactured by ID Business Solutions).

human PI3Kα protein = target: T2, human PI3Kα protein (Homo sapiens, UniProt P42336); assay: PI3Kα enzyme assay (ADP-Glo); conditions: read-out: PI3Kα enzyme inhibitory activity
T2 construct: purchased Carna Biosciences, Inc; host or cells: baculovirus expression system
T2 sequence (P42336 whole entry): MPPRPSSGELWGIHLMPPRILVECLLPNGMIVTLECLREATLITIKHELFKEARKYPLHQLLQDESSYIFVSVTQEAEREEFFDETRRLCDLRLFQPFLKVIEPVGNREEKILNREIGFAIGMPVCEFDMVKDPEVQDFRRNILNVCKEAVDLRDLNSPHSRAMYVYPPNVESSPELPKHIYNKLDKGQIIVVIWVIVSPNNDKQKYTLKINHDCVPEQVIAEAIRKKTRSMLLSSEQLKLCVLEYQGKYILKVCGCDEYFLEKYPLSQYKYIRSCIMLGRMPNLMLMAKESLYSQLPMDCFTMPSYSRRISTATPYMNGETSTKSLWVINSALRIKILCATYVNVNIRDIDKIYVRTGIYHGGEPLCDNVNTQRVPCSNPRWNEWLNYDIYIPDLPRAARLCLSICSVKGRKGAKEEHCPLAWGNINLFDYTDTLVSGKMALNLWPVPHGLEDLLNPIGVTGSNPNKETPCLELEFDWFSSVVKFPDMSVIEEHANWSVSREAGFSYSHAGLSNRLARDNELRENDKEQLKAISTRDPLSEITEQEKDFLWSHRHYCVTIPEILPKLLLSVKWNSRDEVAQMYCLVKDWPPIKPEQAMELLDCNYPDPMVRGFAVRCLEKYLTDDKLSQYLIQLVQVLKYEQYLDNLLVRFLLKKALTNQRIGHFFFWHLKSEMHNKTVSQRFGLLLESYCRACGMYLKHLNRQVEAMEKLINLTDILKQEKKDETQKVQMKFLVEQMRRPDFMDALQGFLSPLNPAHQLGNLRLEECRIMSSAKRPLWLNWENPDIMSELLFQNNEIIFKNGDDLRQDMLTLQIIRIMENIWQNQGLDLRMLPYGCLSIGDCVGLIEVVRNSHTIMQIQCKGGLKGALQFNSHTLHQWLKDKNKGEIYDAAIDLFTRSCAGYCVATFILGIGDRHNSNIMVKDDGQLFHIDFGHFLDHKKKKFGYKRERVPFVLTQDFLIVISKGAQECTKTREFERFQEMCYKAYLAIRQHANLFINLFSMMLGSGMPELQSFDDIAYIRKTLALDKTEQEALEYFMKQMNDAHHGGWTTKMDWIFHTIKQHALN
T2 sequence (P27986 whole entry partner): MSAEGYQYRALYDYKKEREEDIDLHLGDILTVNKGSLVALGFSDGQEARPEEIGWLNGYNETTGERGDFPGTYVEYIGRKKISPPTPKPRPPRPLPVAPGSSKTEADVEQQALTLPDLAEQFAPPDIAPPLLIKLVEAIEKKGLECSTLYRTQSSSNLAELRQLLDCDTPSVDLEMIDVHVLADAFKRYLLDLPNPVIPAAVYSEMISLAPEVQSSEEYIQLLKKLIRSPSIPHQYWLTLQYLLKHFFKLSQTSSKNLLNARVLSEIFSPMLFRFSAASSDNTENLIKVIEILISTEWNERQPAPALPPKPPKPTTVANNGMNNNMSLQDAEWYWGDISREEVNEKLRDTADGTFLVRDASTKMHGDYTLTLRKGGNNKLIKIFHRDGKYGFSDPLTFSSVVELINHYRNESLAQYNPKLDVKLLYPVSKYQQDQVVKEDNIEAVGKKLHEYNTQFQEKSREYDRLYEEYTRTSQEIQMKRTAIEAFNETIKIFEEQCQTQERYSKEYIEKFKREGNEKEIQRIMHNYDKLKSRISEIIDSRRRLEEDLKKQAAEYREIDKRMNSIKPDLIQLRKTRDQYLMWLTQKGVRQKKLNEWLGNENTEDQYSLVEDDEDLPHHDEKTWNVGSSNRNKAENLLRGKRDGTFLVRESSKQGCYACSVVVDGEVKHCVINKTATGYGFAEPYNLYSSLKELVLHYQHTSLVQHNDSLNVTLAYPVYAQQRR
Procedure, shortened: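 Biotinylated human PI3Kα (baculovirus-expressed, 4.5 nmol/L) pre-incubated 15 min with compound in Tris-HCl pH 7.5, MgCl2, BSA; reaction 60 min at 25° C with 50 μmol/L PIP2 and 100 μmol/L ATP final. ADP quantified by ADP-Glo luminescence; IC50 calculated.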

[2] = target: T1, GST fusion human ERK2 protein; assay: ERK2 enzyme assay (2); conditions: read-out: ERK2 enzyme inhibitory activity (2)
Procedure, shortened: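 IC50 values come from mobility-shift measurement of phosphorylated versus unphosphorylated 5-FAM peptide substrate after EDTA quench. Beforehand, compound and 1.25 nmol/L E. coli-expressed GST–human ERK2 stood 15 min at room temperature (pH 7.5), then 1 mmol/L ATP and 4.25 μmol/L substrate (final) were added for 120 min at 25 °C.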

[3] = 2.5 nmol/L ERK2, ATP 43.1 μmol/L

SMILES | pIC50 [1, 3] | pIC50 ([1]; ERK2 enzyme assay (1)) | pIC50 (human PI3Kα protein) | pIC50 ([2]; ERK2 enzyme assay (2)) | pIC50 [2]
Cn1cc(-c2cnc3ccc(Nc4nnc(C5CCC5)s4)nc3c2)cn1 [Example 0198, 5-Cyclobutyl-N-(7-(1-methyl-1H-pyrazol-4-yl)-1,5-naphthyridin-2-yl)-1,3,4-thiadiazole-2-amine] | > 6.00 |  |  |  | 
FC(F)(F)CN1CCC(n2cc(-c3cnc4ccc(Nc5nnc(C6CCCC6)s5)nc4c3)cn2)CC1 [Example 0340, 5-cyclopentyl-N-(7-(1-(1-(2,2,2-trifluoroethyl)piperidin-4-yl)-1H-pyrazol-4-yl)-1,5-naphthyridin-2-yl)-1,3,4-thiadiazole-2-amine] |  | > 6.00 |  |  | 
COc1ccccc1-c1cnc2ccc(Nc3nnc(C4CCCC4)s3)nc2c1 [Example 0211] |  | > 6.00 |  |  | 
CC(C)c1cnnc(Nc2ccc3ncc(-c4ccccc4)cc3n2)c1 [Example 0408] |  | > 6.00 |  |  | 
Cn1cc(-c2cnc3ccc(Nc4nnc(C(N)=O)s4)nc3c2)cn1 [Example 0168, 5-((7-(1-Methyl-1H-pyrazol-4-yl)-1,5-naphthyridin-2-yl)amino)-1,3,4-thiadiazole-2-carboxamide] | > 6.00 |  |  |  | 
CC(C)c1cnnc(Nc2ccc3ncc(-c4cc(-c5ccccn5)nn4C)cc3n2)c1 [Example 0837, N-(5-isopropylpyridazin-3-yl)-7-(1-methyl-3-(pyridin-2-yl)-1H-pyrazol-5-yl)-1,5-naphthyridine-2-amine] |  |  | 5.00 to 6.00 | > 6.00 | 
Cc1nn(C)cc1-c1cnc2ccc(Nc3cc(C(C)C)cnn3)nc2c1C [Example 0852, 7-(1,3-Dimethyl-1H-pyrazol-4-yl)-N-(5-isopropylpyridazin-3-yl)-8-methyl-1,5-naphthyridine-2-amine] |  |  | > 6.00 | > 6.00 | 
CC(C)c1cnnc(Nc2ccc3ncc(-c4cnc(N5CCN(C)CC5)s4)cc3n2)c1 [Example 0498, N-(5-isopropylpyridazin-3-yl)-7-(2-(4-methylpiperazin-1-yl)thiazol-5-yl)-1,5-naphthyridine-2-amine] |  |  | > 6.00 | > 6.00 | 
COc1ccc(Cn2cc(-c3cnc4ccc(Nc5cc(C(C)C)cnn5)nc4c3)cn2)cn1 [Example 0453, N-(5-isopropylpyridazin-3-yl)-7-(1-((6-methoxypyridin-3-yl)methyl)-1H-pyrazol-4-yl)-1,5-naphthyridine-2-amine] |  |  | > 6.00 | > 6.00 | 
CC(C)c1cnnc(Nc2ccc3ncc(-c4cn(C)nc4COC4CN(C(=O)OC(C)(C)C)C4)cc3n2)c1 [Example 0821, tert-Butyl 3-((4-(6-((5-isopropylpyridazin-3-yl)amino)-1,5-naphthyridin-3-yl)-1-methyl-1H-pyrazol-3-yl)methoxy)azetidine-1-carboxylate] |  |  | > 6.00 | > 6.00 | 
COc1ccc(-c2nn(C)cc2-c2cnc3ccc(Nc4cc(C(C)C)cnn4)nc3c2)cc1 [Example 0584] |  |  | > 6.00 | > 6.00 | 
CC(C)c1cnnc(Nc2ccc3ncc(-c4cnn(C)c4)c(N4CCOCC4)c3n2)c1 [Example 0955, N-(5-isopropylpyridazin-3-yl)-7-(1-methyl-1H-pyrazol-4-yl)-8-morpholino-1,5-naphthyridine-2-amine] |  |  | > 6.00 |  | > 6.00
COCC(COC)Cn1cc(-c2cnc3ccc(Nc4cc(C(C)C)cnn4)nc3c2)cn1 [Example 0484] |  |  | > 6.00 | > 6.00 | 
CC(C)c1cnnc(Nc2ccc3ncc(-c4cn(C)nc4Nc4cccnc4)cc3n2)c1 [Example 0469] |  |  | > 6.00 | > 6.00 | 
CCCc1cnnc(Nc2ccc3ncc(-c4cnn(C)c4)cc3n2)c1 [Example 0918] |  |  | > 6.00 |  | > 6.00
CC(C)c1cnnc(Nc2ccc3ncc(-c4cnn(CC5CCN(C(=O)N6CCCC6)CC5)c4)cc3n2)c1 [Example 0539] |  |  | > 6.00 | > 6.00 | 
CC(C)c1cnnc(Nc2ccc3ncc(N4CCC4)cc3n2)c1 [Example 0847, 7-(Azetidin-1-yl)-N-(5-isopropylpyridazin-3-yl)-1,5-naphthyridine-2-amine] |  |  | 5.00 to 6.00 | > 6.00 | 
CCOc1cnnc(Nc2ccc3ncc(-c4cnn(C)c4)cc3n2)c1 [Example 0499] |  |  | > 6.00 | > 6.00 | 

SMILES | pIC50 [1, 3] | pIC50 ([1]; ERK2 enzyme assay (1)) | pIC50 (human PI3Kα protein) | pIC50 ([2]; ERK2 enzyme assay (2)) | pIC50 [2]
CC(C)c1cnnc(Nc2ccc3ncc(-c4cnn(CCCN5CC6(CCO6)C5)c4)cc3n2)c1 [Example 0704, 7-(1-(3-(1-Oxa-6-azaspiro[3.3]heptan-6-yl)propyl)-1H-pyrazol-4-yl)-N-(5-isopropylpyridazin-3-yl)-1,5-naphthyridine-2-amine] |  |  | > 6.00 | > 6.00 | 
CC(C)c1cnnc(Nc2ccc3ncc(N4CCC(C(F)(F)F)C4)cc3n2)c1 (stereo not shown) [Example 0896] |  |  | 5.00 to 6.00 | 5.00 to 6.00 | 
CC(C)c1cnnc(Nc2ccc3ncc(-c4cnn(CCCN5CCC(C(F)(F)F)CC5)c4)cc3n2)c1 [Example 0673] |  |  | > 6.00 | > 6.00 | 
COc1ccc(OCc2nn(C)cc2-c2cnc3ccc(Nc4cc(C(C)C)cnn4)nc3c2)cc1 [Example 0806] |  |  | > 6.00 | > 6.00 | 
CC(C)c1cnnc(Nc2ccc3ncc(C4=CCN(S(C)(=O)=O)C4)cc3n2)c1 [Example 0908, N-(5-Isopropylpyridazin-3-yl)-7-(1-(methylsulfonyl)-2,5-dihydro-1H-pyrrol-3-yl)-1,5-naphthyridine-2-amine] |  |  | > 6.00 |  | > 6.00
CC(C)c1cnnc(Nc2ccc3ncc(-c4cnn(CC5CCNCC5)c4)cc3n2)c1 [Example 0485, trifluoroacetic acid salt of N-(5-isopropylpyridazin-3-yl)-7-(1-(piperidin-4-ylmethyl)-1H-pyrazol-4-yl)-1,5-naphthyridine-2-amine] |  |  | > 6.00 | > 6.00 | 
CC(C)c1cnnc(Nc2ccc3ncc(-c4cn(C)nc4-c4ccc(CN(C)C)cc4)cc3n2)c1 [Example 0768] |  |  | > 6.00 | 5.00 to 6.00 | 
CCN1CC(OCCn2cc(-c3cnc4ccc(Nc5cc(C(C)C)cnn5)nc4c3)cn2)C1 [Example 0746, 7-(1-(2-((l-Ethylazetidin-3-yl)oxy)ethyl)-1H-pyrazol-4-yl)-N-(5-isopropylpyridazin-3-yl)-1,5-naphthyridine-2-amine] |  |  | > 6.00 | > 6.00 | 
CC(C)c1cnnc(Nc2ccc3ncc(-c4cnn(CCOC5CNC5)c4)cc3n2)c1 [Example 0740, 7-(1-(2-(azetidin-3-yloxy)ethyl)-1H-pyrazol-4-yl)-N-(5-isopropylpyridazin-3-yl)-1,5-naphthyridine-2-amine] |  |  | > 6.00 | > 6.00 | 
CC(C)c1cnnc(Nc2ccc3ncc(-c4ccnc(N)n4)cc3n2)c1 [Example 0766] |  |  | > 6.00 | > 6.00 | 
COC[C@@H]1CCCN1c1cnc2ccc(Nc3cc(C(C)C)cnn3)nc2c1 [Example 0874] |  |  | > 6.00 | > 6.00 | 
CC(C)c1cnnc(Nc2ccc3ncc(-c4cn(C)nc4N4CC5(CCO5)C4)cc3n2)c1 [Example 0941] |  |  | > 6.00 |  | > 6.00
CC(C)c1cnnc(Nc2ccc3ncc(C(N)=O)cc3n2)c1 [Example 0640, 6-((5-isopropylpyridazin-3-yl)amino)-1,5-naphthyridine-3-carboxamide] |  |  | 5.00 to 6.00 | > 6.00 | 
CC(C)c1cnnc(Nc2ccc3ncc(-c4cn(C)nc4COC4COC4)cc3n2)c1 [Example 0911, N-(5-isopropylpyridazin-3-yl)-7-(1-methyl-3-((oxetan-3-yloxy)methyl)-1H-pyrazol-4-yl)-1,5-naphthyridine-2-amine] |  |  | > 6.00 |  | > 6.00
Cc1nn(C)cc1-c1cnc2ccc(Nc3cn(C(C)C)cn3)nc2c1 [Example 0950, 7-(1,3-dimethyl-1H-pyrazol-4-yl)-N-(1-isopropyl-1H-imidazol-4-yl)-1,5-naphthyridine-2-amine] |  |  | > 6.00 |  | 5.00 to 6.00
CC(C)c1cnnc(Nc2ccc3ncc(-c4cn(C)nc4Oc4ccccc4)cc3n2)c1 [Example 0820] |  |  | > 6.00 | > 6.00 | 
CC(C)c1cnnc(Nc2ccc3ncc(N4C[C@@H](C)O[C@@H](C)C4)cc3n2)c1 [Example 0873] |  |  | > 6.00 | > 6.00 | 
COC1CN(c2cnc3ccc(Nc4cc(C(C)C)cnn4)nc3c2)C1 [Example 0853] |  |  | > 6.00 | > 6.00 | 
